ChEMBL document CHEMBL1154980, “Tetrapeptides possessing a unique skeleton, JBIR-34 and JBIR-35, isolated from a sponge-derived actinomycete, Streptomyces sp. Sp080513GE-23” (J Nat Prod, 2010)
The source made the active and inactive calls. No cut-off for these calls is given here.

Tests used:
[1] = system: Radical scavenging activity; test: Antioxidant activity assessed as DPPH radical scavenging activity after 1 hr; assay type: functional
Escherichia coli = test: Antibacterial activity against Escherichia coli; assay type: functional, organism-based
Micrococcus luteus = test: Antibacterial activity against Micrococcus luteus; assay type: functional, organism-based

| IC50 [1] [mM] | SMILES | Activity (Escherichia coli) | Activity (Micrococcus luteus) |
| --- | --- | --- | --- |
| 0.05 | Cc1c(C)c2c(c(C)c1O)CC[C@@](C)(CCC[C@H](C)CCC[C@H](C)CCCC(C)C)O2 [ALPHA-TOCOPHEROL] |  |  |
| 2.5 | C[C@@H](NC(=O)[C@@]1(C)COC(c2cn(C)c3cc(Cl)cc(O)c23)=N1)C(=O)N[C@@H](CO)C(=O)O | inactive | inactive |
| 1 | Cc1c(Cl)cc2c(c(C3=N[C@@](C)(C(=O)N[C@H](C)C(=O)N[C@@H](CO)C(=O)O)CO3)cn2C)c1O | inactive | inactive |
